# Test results from ChEMBL document CHEMBL6087389, “Hydrazone-Functionalized trans-A2B-Corroles: Effective Synergy in Photodynamic Therapy of Lung Cancer” (J Med Chem, 2024).
# Experiments:
# A549 [1] = assay: Dark toxicity against human A549 cells assessed as reduction in metabolic activity at 10 uM incubated for 4 hrs by MTT assay; assay type: cell-based; parameters: scale not given: the % may be the effect or the level left; conditions: a549, 4 h
# [2] = Phototoxicity against human A549 cells assessed as reduction in cell viability preincubated for 24 hrs followed by 7.5 to 10 mW/cm^-2 red light irradiation and measured after 24 hrs by MTT assay; assay type: functional, cell-based; conditions: A549, light or radiation study
# [3] = Induction of singlet oxygen generation in THF assessed as singlet oxygen quantum yield by comparative photoluminescence method; assay type: functional
# A549 [4] = assay: Dark toxicity against human A549 cells assessed as reduction in metabolic activity at <1 uM incubated for 4 hrs by MTT assay; assay type: cell-based; conditions: a549, 4 h
# [5] = Fluorescence property of the compound in toluene assessed as fluorescence quantum yield by photoluminescence quantum yield spectrometer; assay type: physicochemical
# [6] = Phototoxicity against human NCI-H1299 cells assessed as reduction in cell viability preincubated for 24 hrs followed by 7.5 to 10 mW/cm^-2 red light irradiation and measured after 24 hrs by MTT assay; assay type: functional, cell-based; conditions: NCI-H1299, light or radiation study
# NCI-H1299 [7] = assay: Dark toxicity against human NCI-H1299 cells assessed as reduction in metabolic activity at 10 uM incubated for 4 hrs by MTT assay; assay type: cell-based; parameters: scale not given: the % may be the effect or the level left; conditions: nci-h1299, 4 h
# NCI-H1299 [8] = assay: Dark toxicity against human NCI-H1299 cells assessed as reduction in metabolic activity at <1 uM incubated for 4 hrs by MTT assay; assay type: cell-based; conditions: nci-h1299, 4 h
# [9] = Fluorescence property of the compound in THF assessed as fluorescence quantum yield by photoluminescence quantum yield spectrometer; assay type: physicochemical
# [10] = Fluorescence property of the compound in DMSO assessed as fluorescence quantum yield by photoluminescence quantum yield spectrometer; assay type: physicochemical
# A549 [11] = assay: Dark toxicity against human A549 cells assessed as reduction in metabolic activity at 5 uM incubated for 4 hrs by MTT assay relative to control; assay type: cell-based; parameters: scale not given: the % may be the effect or the level left; conditions: a549, 4 h
Activity [5],Activity [9],Activity [10],SMILES,Activity (A549 [1]),IC50 [2] [nM],Activity [3],Activity (A549 [4]),IC50 [6] [nM],Activity (NCI-H1299 [7]),Activity (NCI-H1299 [8]),Activity (A549 [11]) [%]
0.197,–,–,CC(C)(C)OC(=O)N/N=C(\c1ccccc1)c1c2nc(c(-c3ccc([N+](=O)[O-])cc3)c3ccc([nH]3)c3ccc([nH]3)c(-c3ccc([N+](=O)[O-])cc3)c3ccc1[nH]3)C=C2,48.37%,2110,0.31,Non-toxic,2360,51.15%,Non-toxic,–
–,0.133,0.283,C/C(=N/NC(=O)OC(C)(C)C)c1c2nc(c(-c3cccc(O)c3)c3ccc([nH]3)c3ccc([nH]3)c(-c3cccc(O)c3)c3ccc1[nH]3)C=C2,–,140,0.26,Non-toxic,67.5,–,Non-toxic,–
0.002,–,–,C/C(=N\Nc1ccc([N+](=O)[O-])cc1[N+](=O)[O-])c1c2nc(c(-c3ccccc3)c3ccc([nH]3)c3ccc([nH]3)c(-c3ccccc3)c3ccc1[nH]3)C=C2,–,–,–,Non-toxic,–,–,Non-toxic,–
–,0.111,0.211,C/C(=N\NC(=O)c1ccccc1)c1c2nc(c(-c3ccccc3)c3ccc([nH]3)c3ccc([nH]3)c(-c3ccccc3)c3ccc1[nH]3)C=C2,Non-toxic,803,0.11,Non-toxic,164,Non-toxic,Non-toxic,–
–,–,–,Oc1cccc(-c2c3nc(c(-c4cccc(O)c4)c4ccc([nH]4)c(-c4cccc(O)c4)c4nc(c(-c5cccc(O)c5)c5ccc2[nH]5)CC4)C=C3)c1 [TEMOPORFIN],–,84.1,–,–,–,–,–,–
–,0.073,0.212,C/C(=N\NS(=O)(=O)c1ccc(C)cc1)c1c2nc(c(-c3ccc(O)cc3)c3ccc([nH]3)c3ccc([nH]3)c(-c3ccc(O)cc3)c3ccc1[nH]3)C=C2,13.93%,892,0.19,Non-toxic,277,–,Non-toxic,17.95
